Measurements published in patent EP2805705B1, “Packaging with one or more administration units comprising a sodium salt of (R)-3-[6-amino-pyridin-3-yl]-2-(1-cyclohexyl-1 H-imidazol-4-yl)-propionic acid” (IP Gesellschaft für Management mbH, priority 2013, dated 2014).

Assays:
[1] = Dynamic vapor sorption (DVS), SPS11-10µ, one cycle at 25 °C; assay type: physicochemical; conditions: DVS isotherm at 25 °C
Description: (§1) Example 7: Dynamic vapor sorption (DVS) of (R)-3-[6-amino-pyridin-3-yl]-2-(1-cyclohexyl-1 H-imidazol-4-yl)-propionic acid sodium salt monohydrate: Moisture sorption/desorption isotherms were recorded on a SPS11-10µ from Projekt Messtechnik (Ulm, Germany). One cycle was run at 25 °C, in which the sample was first stepwise decreased to 0% RH and then the relative humidity was stepwise increased from 0 to 95% and the weight of the sample was measured. Typical total measurement times for both cycles were about 20 to 30 hours. The measured data for the (R)-3-[6-amino-pyridin-3-yl]-2-(1-cyclohexyl-1 H-imidazol-4-yl)-propionic acid sodium salt monohydrate as prepared in Examples 2 or 3 are shown in the following table: DVS Isotherm at 25 °C:
(§2) Example 12: DVS, Comparison Experiment: (R)-3-[6-amino-pyridin-3-yl]-2-(1-cyclohexyl-1 H-imidazol-4-yl)-propionic acid as prepared in Example 1 was used for the measurement. The measurement was performed as disclosed in Example 7 with (R)-3-[6-amino-pyridin-3-yl]-2-(1-cyclohexyl-1 H-imidazol-4-yl)-propionic acid (free acid, amorphous) and the received data are shown in the following table: DVS Isotherm at 25 °C
as §1, with “(DVS):” for “(DVS) of (R)-3-[6-amino-pyridin-3-yl]-2-(1-cyclohexyl-1 H-imidazol-4-yl)-propionic acid sodium salt monohydrate:”, “Room humidity (RH)” for “RH”, “dihydrate” for “monohydrate”, “Example” for “Examples 2 or”, “isotherm” for “Isotherm”, “25°C:” for “25 °C:”
as §2, with “9:” for “12:”

[2] = Chiral stability on storage as a solid at 40 °C and 75 % RH (chiral HPLC); assay type: physicochemical
Description: Example 8: Chiral stability: Representative samples of the crystalline sodium salt of (R)-3-[6-amino-pyridin-3-yl]-2-(1-cyclohexyl-1 H-imidazol-4-yl)-propionic acid sodium salt dihydrate as prepared in Example 3 were stored as a solid under the conditions (A) and (B): (A) 40 °C and 75 % RH 2 weeks; (B) 40 °C and 75 % RH 4 weeks: Results are shown in the following table:
Under the storage conditions the samples remain stable. […] The purity was determined by chiral HPLC on a HPLC system containing a Quaternary HPLC pump (e.g. HP 1100), an auto sampler, an UV absorbance detector (e.g. DAD Agilent Technologies or other adequate HPLC-System) and a computer data acquisition system with suitable software (e.g. Dionex-Chromeleon). A Zorbax SB_CN (4.6 x 100 mm, 3.5 µlτ ? ), column was used as stationary phase and two mobile phases A (975 mL water, 25 mL methanol, 1 mL perchloric acid) and B (975 mL methanol, 25 mL water) were used as mobile phases. The flow rate was set to a value of 1.0 mL/minute and the oven temperature was set to 15°C. Detection was performed by absorbance of the compounds at 236 nm (UV) (bandwidth: 4 nm) and reference wavelength was set to 450 nm (bandwidth: 50 nm). Typical total run times were in the range of about 10 minutes. For sample preparation 20 mg of the substance were accurately weighed into a 10 ml volumetric flask and dissolved and diluted to volume with solvent (acetonitrile/water 90:10 VN). Afterwards 1 ml of this solution was transferred to a 10 mL volumetric flask and then diluted to volume with water. For the HPLC analysis 5 µl of the sample were injected into the system. Gradient used: 0 min (time elapsed) 0% mobile phase B, 1 min 0% mobile phase B, 4 min 53% mobile phase B, 6 min 95% mobile phase B, 7 min 95% mobile phase B, 7.5 min 0% mobile phase B and after 10 min 0% mobile phase B. Enanatiomeric excess was determined by chiral HPLC on a HPLC system containing a Quaternary HPLC pump (e.g. HP 1100), an auto sampler, an UV absorbance detector (e.g. DAD Agilent Technologies or other adequate HPLC-System) and a computer data acquisition system with suitable software (e.g. Dionex-Chromeleon). A Chirobiotic R, Supelco (Astec) (4.6 x 250mm; 5µηη) column was used as stationary phase and a solution of 800 mL water, 1200 mL acetonitrile and 1.0 g ammoniumacetate was used as mobile phase. The flow rate was set to a value of 1.5 mL/minute and the oven temperature was set to 45°C. Detection was performed by absorbance of the compounds at 236 nm (UV) (bandwidth: 8 nm) and reference wavelength was set to 450 nm (bandwidth: 50 nm). Typical total run times were in the range of about 15 minutes. For sample preparation 50 mg of the substance were accurately weighed into a 10 mL volumetric flask and dissolved and diluted to volume with solvent (acetonitrile/water 50:50). For the HPLC analysis 5 µí of the sample were injected into the system. Gradient used: Isograt (15 minutes 100% mobile phase A).
Example 10: Chiral stability; Comparison Experiment: (R)-3-[6-amino-pyridin-3-yl]-2-(1-cyclohexyl-1 H-imidazol-4-yl)-propionic acid as prepared in Example 1 was used for the measurement. Representative samples of the compound (R)-3-[6-amino-pyridin-3-yl]-2-(1-cyclohexyl-1 H-imidazol-4-yl)-propionic acid as prepared in Example 1 were stored as a solid under the conditions (A) and (B) as defined in Example 8.

[3] = assay type: physicochemical; conditions: At 90% RH, 25°C
Description: Said crystal Form I according to the invention (samples obtained according to the process of scheme 1) was characterized by several physical methods such as X-ray Powder Diffraction, Differential Scanning Calorimetry, Thenno-Gravimetric Analysis, Water-Activity isotherm measurement, as shown below. X-Ray Powder Diffraction (XRPD): XRPD experiments are carried out on a Braker AXS D8 powder diffractometer using the Bragg-Brentano parafocusing geometry. A thin layer of the product is deposited on a single-crystal silicon wafer, cut out according to Si (510) crystallographic orientation that, by systematic extinction, impedes any Bragg reflection. […] Diagrams are recorded in the following conditions: a 1.5 to 40.0° scan in angle 20, 10 and 100 seconds counting time per degree in 20, according to the amount of powder to be analyzed, and ambient conditions of pressure, temperature and relative humidity. […] Between 1.5 and 5 mg of the product to be analyzed is placed in a semi-open aluminum sample pan. An endo thermic peak is recorded (onset around 104°C). […] A controlled relative humidity is generated by mixing different proportions of dry and water saturated carrier gas streams (monitored by mass flow conti llers). […] From the complete moisture sorption and desorption profile an isotherm is calculated using the DVS Advanced Analysis Suite v3.6. […]

total water uptake [3]	SMILES	Change In Mass (%) Desorption ([1]; Target RH 0.4 %)	Change In Mass (%) Sorption ([1]; Target RH 10.0 %)	Change In Mass (%) Desorption ([1]; Target RH 10.1 %)	Change In Mass (%) Desorption ([1]; Target RH 20.0 %)	Change In Mass (%) Sorption ([1]; Target RH 20.0 %)	Change In Mass (%) Sorption ([1]; Target RH 30.0 %)	Change In Mass (%) Desorption ([1]; Target RH 30.1 %)	Change In Mass (%) Sorption ([1]; Target RH 40.1 %)	Change In Mass (%) Sorption ([1]; Target RH 50.0 %)	Change In Mass (%) Sorption ([1]; Target RH 60.1 %)	Change In Mass (%) Sorption ([1]; Target RH 70.0 %)	Change In Mass (%) Sorption ([1]; Target RH 75.0 %)	Change In Mass (%) Sorption ([1]; Target RH 80.1 %)	Change In Mass (%) Sorption ([1]; Target RH 85.1 %)	Change In Mass (%) Sorption ([1]; Target RH 89.9 %)	Change In Mass (%) Sorption ([1]; Target RH 95.0 %)	Enantiomeric excess ([2]; Storage condition (A) 40 °C and 75 % RH 2 weeks, stored as a solid)	Enantiomeric excess ([2]; at the beginning)
	Nc1ccc(C[C@@H](C(=O)O)c2cn(C3CCCCC3)cn2)cn1 [(R)-3-[6-amino-pyridin-3-yl]-2-(1-cyclohexyl-1 H-imidazol-4-yl)-propionic acid]	-1.6%	-0.5%	0.3%	1.1%	0.5%	1.9%	1.7%	3.9%	6.6%	9.6%	13.4%	15.0%	16.9%	20.1%	25.1%	32.3%	94.9%	98.2%
less than 0.15 % (w/w)	COc1ccc(/C=C\c2cc(OC)c(OC)c(OC)c2)cc1NC(=O)[C@@H](N)CO [crystal Form I, (2S)-2-amino-3-hydroxy-N-[2-methoxy-2-[(1Z)-2-(3,4,5-trimethoxyphenyl)ethenyl]phenyl] propanamide]																		
